Laboratory results as given in patent publication US20200246331A1, “Pharmaceutical combinations and their use” (Novartis AG, priority 2015, published 2020).
Like-named read-outs stand apart in the source and are kept apart here.

Legend:
Assay type in all cases: cell-based
Mel270 UM cell line = experiment: 72 hr CellTiter-Glo cell proliferation assay, Mel270; conditions: read-out: IC50 single agent activity
Procedure: (§1) Next, luminescence was recorded using the plate reader.

Mel202 UM cell line = experiment: 72 hr CellTiter-Glo cell proliferation assay, Mel202; conditions: read-out: IC50 single agent activity
Procedure: as §1

UM 92.1 cell line = experiment: 72 hr CellTiter-Glo cell proliferation assay, 92.1; conditions: for IC50: 92.1 cell line, 72 hr CTG, read-out: IC50 single agent activity
Procedure: as §1
The percent growth inhibition and excess inhibition were analysed using the Chalice software (CombinatoRx, Cambridge Mass.). […] All remaining points in the grids display results from a combination of the two inhibitors that correspond to the single agent concentrations denoted on the two axes. Data analysis of cell proliferation was performed using Chalice Analyser as described in (Lehar et al. 2009). Excess inhibition was calculated using the Loewe synergy model which measures the effect on growth relative to what would be expected if two drugs behave in a dose additive manner. Positive numbers represent areas of increasing synergy.

OMM2.5 UM cell line = experiment: 72 hr CellTiter-Glo cell proliferation assay, OMM2.5; conditions: read-out: IC50 single agent activity
Procedure: as §1

Mel285 UM cell line = experiment: 72 hr CellTiter-Glo cell proliferation assay, Mel285; conditions: read-out: IC50 single agent activity
Procedure: as §1

## COc1cc2c(cc1OC(C)C)[C@H](c1ccc(Cl)cc1)N(c1ccc(N(C)C[C@H]3CC[C@H](N4CCN(C)C(=O)C4)CC3)cc1)C(=O)C2 [Compound A, (S)-1-(4-Chloro-phenyl)-7-isopropoxy-6-methoxy-2-(4-{methyl-[4-(4-methyl-3-oxo-piperazin-1-yl)-trans-cyclohexylmethyl]-amino}-phenyl)-1,4-dihydro-2H-isoquinolin-3-one]
Mel270 UM cell line; Mel270 cell line, 72 hr CTG
  IC50: 362 nM
Mel202 UM cell line; Mel202 cell line, 72 hr CTG
  IC50: 401 nM
UM 92.1 cell line
  IC50: 667 nM
OMM2.5 UM cell line; OMM2.5 cell line, 72 hr CTG
  IC50: 2570 nM
Mel285 UM cell line; Mel285 cell line, 72 hr CTG
  IC50: 1260 nM

## COc1ncc(-c2nc3c(n2C(C)C)[C@H](c2ccc(Cl)cc2)N(c2cc(Cl)cn(C)c2=O)C3=O)c(OC)n1 [Compound B, (S)-5-(5-Chloro-1-methyl-2-oxo-1,2-dihydro-pyridin-3-yl)-6-(4-chloro-phenyl)-2-(2,4-dimethoxy-pyrimidin-5-yl)-1-isopropyl-5,6-dihydro-1H-pyrrolo[3,4-d]imidazol-4-one]
Mel270 UM cell line; 72 h
  IC50: 34 nM
Mel202 UM cell line; Mel202, 72 h
  IC50: 60 nM
UM 92.1 cell line
  IC50: 86 nM
OMM2.5 UM cell line; 72 h
  IC50: 249 nM
Mel285 UM cell line; 72 h
  IC50: 167 nM

## CC1(N)CCN(c2cccnc2NC(=O)c2nc(-c3ncccc3C(F)(F)F)cnc2N)CC1 [Compound D, 3-amino-N-(3-(4-amino-4-methylpiperidin-1-yl)pyridin-2-yl)-6-(3-(trifluoromethyl)pyridin-2-yl)pyrazine-2-carboxamide]
UM 92.1 cell line; one UM cell line, single agent
  efficacy as single agent compared with the other PKC inhibitor: more effective as a single agent
